Literature values, collected in patent US7749527B2, “Gel compositions for control of ecto-parasites” (Wyeth LLC, priority 2005, dated 2010).

Test system: fleas and ticks
Conditions: companion animals

N#Cc1ccc(CC(=NNC(=O)Nc2ccc(OC(F)(F)F)cc2)c2cccc(C(F)(F)F)c2)cc1 [Metaflumizone, (E Z)-2-[2-(4-cyanophenyl)-1-[3-(trifluoromethyl)phenyl]ethylidene]-N-[4-(trifluoromethoxy)phenyl]hydrazinecarboxamide]
protection from fleas and ticks: 4-6 weeks
